Legend:
Type in all cases: in vivo, mouse
NMRI mice = assay: Tail suspension test in NMRI mice; settings: single drug i.p. 30 min prior to test, 6 min test
Source text: Drug candidates can be screened for antidepressant-like activity by using animal models. In the tail suspension test the mouse is suspended by its tail. The mouse will initially move and struggle but will with time become increasingly immobile. Pretreatment with a clinically effective antidepressant decreases the time spent immobile. This includes selective serotonin re-uptake inhibitors (SSRIs) and drugs inhibiting the noradrenaline reuptake mechanism, as well as some putative antidepressants with non-monoamine pharmacology. […] In animal models of depression, including the tail suspension test, mouse strains differ considerably in their responsiveness to antidepressants. This may parallel the clinical situation where a considerable subset of patients is refractory to pharmacotherapy. […] In our laboratory mice of the NMRI strain consistently fails to repond to SSRIs in the tail suspension test of antidepressant activity, while C57 mice show a strong response (FIG. 1). Male NMRI and C57Bl/6j mice (Taconic Europe, St. […]) weighing 25-35 g were housed and habituated for at least 7 days before the experiments in Macrolon III cages (20×40×18 cm) with eight mice per cage. Chow and water were available ad libitum, with lights on at 6 a.m. and off at 6 p.m. All behavioral testing was conducted during the light phase. […] All drugs were administered i.p. in saline in a volume of 10 ml/kg. In the tail suspension and locomotor activity experiments drugs were injected 30 min prior to test. The tail suspension test employed was a modified version to that described elsewhere. Mice were suspended individually by the tail using adhesive tape (attached 2 cm from tip of the tail) to a hook attached to a strain gauge and left there for 6 min. The duration of immobility was measured using an automated system (Med Associates, USA) during the 6 min testing period. Tail suspension data were analyzed either using one-way ANOVA (single-drug treatments) or two-way ANOVA (paroxetine/5-HTP and citalopram/5-HTP) with Dunnets post-hoc test. Locomotor activity data were analyzed using two-way ANOVA with Dunnets post-hoc test. Tissue 5-HT data were analyzed using students t-test. Microdialysis 5-HT data were analyzed using two-way repeated measures ANOVA with Dunnets post-hoc test.

C57Bl/6j mice = assay: Tail suspension test in C57 mice; settings: single drug i.p. 30 min prior to test, 6 min test
Source text: Drug candidates can be screened for antidepressant-like activity by using animal models. In the tail suspension test the mouse is suspended by its tail. The mouse will initially move and struggle but will with time become increasingly immobile. Pretreatment with a clinically effective antidepressant decreases the time spent immobile. This includes selective serotonin re-uptake inhibitors (SSRIs) and drugs inhibiting the noradrenaline reuptake mechanism, as well as some putative antidepressants with non-monoamine pharmacology. […] In animal models of depression, including the tail suspension test, mouse strains differ considerably in their responsiveness to antidepressants. […]
The tail suspension test employed was a modified version to that described elsewhere. […] The duration of immobility was measured using an automated system (Med Associates, USA) during the 6 min testing period.
(§1) Tail suspension data were analyzed either using one-way ANOVA (single-drug treatments) or two-way ANOVA (paroxetine/5-HTP and citalopram/5-HTP) with Dunnets post-hoc test. Locomotor activity data were analyzed using two-way ANOVA with Dunnets post-hoc test. Tissue 5-HT data were analyzed using students t-test. Microdialysis 5-HT data were analyzed using two-way repeated measures ANOVA with Dunnets post-hoc test.

brain 5-HT = assay: Tissue 5-HT in frontal cortex and hippocampus of NMRI mice (HPLC-EC); settings: acute administration
Procedure: (§2) Male NMRI and C57Bl/6j mice (Taconic Europe, St. Laven, DK) weighing 25-35 g were housed and habituated for at least 7 days before the experiments in Macrolon III cages (20×40×18 cm) with eight mice per cage. Chow and water were available ad libitum, with lights on at 6 a.m. and off at 6 p.m. All behavioral testing was conducted during the light phase.
Fluoxetine HCl, desipramine HCL, 5-hydroxytryptamine, citalopram HBr, paroxetine HCl, reboxetine fumarate and duloxetine oxalate. All drugs were administered i.p. in saline in a volume of 10 ml/kg. In the tail suspension and locomotor activity experiments drugs were injected 30 min prior to test.
Mice killed by cervical dislocation and the frontal cortex and hippocampus rapidly dissected, frozen on dry ice and stored at −80° C. until analysis by HPLC-EC.
(§3) 5-HT in tissue and microdialysis samples were analysed using HPLC-EC as previously described in Weikop P et al.; Eur Neuropsychopharmacol 2007; 17:658-671.
as §1

extracellular 5-HT = assay: Microdialysis of extracellular 5-HT in frontal cortex, NMRI mice; settings: citalopram 20 mg/kg, 5-HTP 12.5 mg/kg
Procedure: as §2
Microdialysis were performed in freely moving mice as previously described in Jacobsen J P et al.; Neuroscience 2005; 132:1055-1072. The flowrate was 1 ul/min and 20 min samples were collected. Four baseline samples were collected whereafter saline, 5-HTP (12.5 mg/kg), citalopram (20 mg/kg) or citalopram+5-HTP were injected and six additional samples where collected. Samples were collected on ice, immediatedly frozen on dry ice and stored at −80° C. until analysis by HPLC-EC.
as §3, §1

Row | Structure (SMILES) | immobility in tail suspension test (NMRI mice) | immobility in tail suspension test (C57Bl/6j mice) | other results
1 | CNCCC(Oc1ccc(C(F)(F)F)cc1)c1ccccc1 (stereo not shown) [fluoxetine] | without effect |  | 
2 | CCOc1ccccc1OC(c1ccccc1)C1CNCCO1 (stereo not shown) [reboxetine] | reduced immobility | decreased immobility | 
3 | CNCCCN1c2ccccc2CCc2ccccc21 [desipramine] | reduced immobility | decreased immobility | 
4 | N[C@@H](Cc1c[nH]c2ccc(O)cc12)C(=O)O [5-HTP, 5-hydroxytryptophan] | did not affect immobility |  | 5-HT levels ± sem, Frontal Cortex (brain 5-HT; frontal cortex tissue): 122 ± 3.3 % of saline; 5-HT levels ± sem, Hippocampus (brain 5-HT; hippocampus tissue): 83.4 ± 2.6 % of saline; decrease of tissue 5-HT in the hippocampus (brain 5-HT; vs saline): 17%; increase of tissue 5-HT in the frontal cortex (brain 5-HT; vs saline): 22%; increase in extracellular 5-HT in the frontal cortex (extracellular 5-HT): only a modest increase
5 | Fc1ccc([C@@H]2CCNC[C@H]2COc2ccc3c(c2)OCO3)cc1 [paroxetine] | without effect |  | 
6 | CNCC[C@H](Oc1cccc2ccccc12)c1cccs1 [duloxetine] | reduced immobility |  | 

Source: US8969400B2, “Pharmaceutical compositions of 5-hydroxytryptophan and serotonin-enhancing compound” (Duke University, priority 2007, dated 2015)
